# Results taken from patent US4812443A, “Methods for enhancing differentiation and proliferation of hematopoietic progenitor cells” (Kuraray Co., Ltd., priority 1984, dated 1989).
# B1: Human chorionic somatomammotropin: hormone named in Table 1 (protein, UniProt P0DML2 27-217, looked up)
# Chorionic somatomammotropin …: VQTVPLSRLFDHAMLQAHRAHQLAIDTYQEFEETYIPKDQKYSFLHDSQTSFCFSDSIPTPSNMEETQQKSNLELLRISLLLIESWLEPVRFLRSMFANNLVYDTSDSDDYHLLKDLEEGIQTLMGRLEDGSRRTGQILKQTYSKFDTNSHNHDALLKNYGLLYCFRKDMDKVETFLRMVQCRSVEGSCGF
# Columns and labels:
# [1] = system: erythropoietic progenitor cells; conditions: in vitro cell culture, presence of hematopoietic stimulating hormones; Table 1; cited from earlier work
# [2] = general knowledge; cited from earlier work
# [3] = system: late erythrocytic progenitor cells (CFU-e); assay: Differentiation and proliferation of late erythrocytic progenitor cells (CFU-e), cluster colony formation; type: cell-based, mouse (BDF1-strain); conditions: 20 μg/ml, Runs 2 to 4; for Number of colonies formed in the dolichols-added group (CFU-e): 2 days, erythropoietin 0.25 unit, mean ± S.E., 6 replicas, solvent controls 124.2 ± 2.7, 246.0 ± 5.0, 124.7 ± 2.9
# Description: (§1) The mouse bone marrow cells used in the following experiments were all prepared as follows:
# (§2) BDF1 -strain mice (female, 8 to 10 weeks old) were killed by cervical dislocation, and the femurs were collected under sterile conditions. The bone marrow cells were flushed out from the femurs with α-medium, and formed into a single cell suspension by repeated aspiration with a 26-gauge needle fitted to a 1 ml-syringe. The cells were washed two times with α-medium by centrifugation at 200×G for 5 minutes and used in the following experiments.
# In accordance with the method of Murphy et al. mentioned above, mouse bone marrow cells were plated at 2.5×10^4 nuclear cells into 0.5 ml of α-medium containing 0.25 unit of erythropoietin, 30% fetal bovine serum, 1% bovine serum albumin, 0.1 mM 2-mercaptoethanol and 0.4% methyl cellulose with 10 μg of dolichol dissolved in 1 μl of ethanol, 10 μg of dolichyl phosphate dispersed in 0.5 μl of dimethyl sulfoxide, 1 μl of ethanol or 0.5 μl of dimethyl sulfoxide in a 16 mm.phi. tissue culture plate, and incubated at 37° C. in a humidified atmosphere of 5% carbon dioxide in air for 2 days. The number of cluster colonies consisting of 8 to 64 erythroblasts derived from CFU-e in the tissue culture plate was scored with an inverted microscope. The experiment was carried out by 6 replica assays for each group, and the average number of the colonies formed was determined. The results are shown in Table 3, in the rows of Runs 2 to 4.
# sea urchin embryos = conditions: compactin added to the culture of the embryos; cited from earlier work
# [4] = system: dolichol biosynthesis in spleen; conditions: phenylhydrazine subcutaneous (induced anemia); cited from earlier work
# [5] = system: early erythrocytic progenitor cells (BFU-e); assay: Differentiation and proliferation of early erythrocytic progenitor cells (BFU-e), burst colony formation; type: cell-based, mouse (BDF1-strain); conditions: 20 μg/ml, Run 1
# Description: as §1, §2
# In accordance with the method of Murphy et al. (In Vitro Aspects of Erythropoiesis, page 262, Sringer-Verlag, 1978), mouse bone marrow cells were plated at 2×10^5 nuclear cells into 1 ml of α-medium containing 1 unit of erythropoietin, 30% fetal bovine serum, 1% bovine serum albumin, 0.1 mM 2-mercaptoethanol and 0.8% methyl cellulose with 20 μg of dolichyl phosphate dispersed in 1 μl of dimethyl sulfoxide or 1 μl of dimethyl sulfoxide in a 35 mm.phi. tissue culture plate, and incubated at 37° C. in a humidified atmosphere of 5% carbon dioxide in air for 9 days. The number of burst colonies consisting of more than 500 erythroblasts derived from BFU-e in the tissue culture plate was scored with an inverted microscope. The experiment was carried out by 6 replica assays for each group, and the average number of the colonies formed was determined.
# [6] = system: granulocyte-macrophage progenitor cells (CFU-c); assay: Differentiation and proliferation of granulocyte-macrophage progenitor cells (CFU-c), colony formation; type: cell-based, mouse (BDF1-strain); conditions: printed 20 g/ml (method: 20 μg in 1 ml), Run 5
# Description: as §1, §2
# In accordance with the method of Worton et al. [R. G. Worton et al., J. Cell Physiol., 74, 171 (1969)], mouse bone marrow cells were plated at 1×10^5 nuclear cells into 1 ml of α-medium containing 10% L cell-conditioned medium as source of colony stimulating factor, 20% fetal bovine serum and 0.8% methyl cellulose with 20 μg of dolichyl phosphate dispersed in 1 μl of dimethyl sulfoxide or 1 μl of dimethyl sulfoxide in a 35 mm.phi. tissue culture plate, and incubated at 37° C. in a humidified atmosphere of 5% carbon dioxide in air for 7 days. The number of colonies consisting of more than 50 cells (granulocytecolonies, macrophage colonies or their mixed colonies) derived from […] was scored with an inverted microscope. The experiment was carried out by 6 replica assays for each group, and the average number of the colonies formed was determined.
# erythropoiesis = assay: Erythropoiesis in vivo, 59Fe incorporation in hereditarily anemic mice (Run 7); parameters: species or system mouse (WBB6 F1-W/Wv-strain); conditions: 250 mg/kg once i.p.
# Description: Phenylhydrazine was administered to normal mice and hereditarily anemic mice to induce severe hemolytic anemia. Then, the rate of erythropoiesis during recovering of anemia was determined by measuring the rate of radioactive iron (^59 Fe) incorporation into newly formed red blood cells [P. M. Cotes, D. R. Bangham, Nature (London), 191, 1067 (1961)]. The testing method and results are described below.
# Dolichyl phosphate in a dose of 250 mg/kg (0.2 ml of an emulsion obtained by emulsifying […] of dolichyl phosphate and 25 mg of sesame oil in 1 ml of a 1% aqueous solution of sodium carboxymethyl cellulose per 20 g of the body weight) was intraperitoneally administered to hereditarily anemic WBB6 F1 -W/Wv-strain mice (6 weeks old, female) on the 1st day of the experiment. A 1% aqueous solution of sodium carboxymethyl cellulose was intraperitoneally administered (0.2 ml/20 g of body weight) to a control group. On the 2nd day, the mice in each group were subcutaneously injected with phenylhydrazine hydrochloride in a dose of 60 mg/kg. […] On the 5th day, 0.5 ml of the whole blood was taken from each mouse, and the ^59 Fe incorporation rates during the period of 48 hours were measured as in Run 6. The experiment was carried out on 6 mice in each group, and the average value of the incorporation rates was calculated.
# mice = assay: Acute toxicity of dolichyl phosphate in mice; type: in vivo, mouse (BDF1-strain); conditions: 1000 mg/kg and 2000 mg/kg i.p.; 2nd day of administration
# Description: (2) Dolichyl phosphate synthesized in Referential Example 3 below was dissolved in the same amount of sesame oil, and added to a 1% aqueous solution of sodium carboxy methyl cellulose so that the concentration of dolichyl phosphate reached 5% V/V. The resulting emulsion was used in the test.
# BDF1 -strain mice (20-23 g, female), 6 per group, were used.
molecule,measurement,setting,value
C[C@@H]1C[C@H]2[C@@H]3CCC4=CC(=O)C=C[C@]4(C)[C@@]3(F)[C@@H](O)C[C@]2(C)[C@@]1(O)C(=O)CO [Dexamethasone],Effect on colony formation of erythropoietic progenitor cells,[1],.uparw.
same,Side-effects,[2],"clinically undesirable side-effects such as electrolytic disorders, hypertension, peptic ulcer, diabetes, liver impediments, and masculinization"
CC(C)=CCC/C(C)=C/CC/C(C)=C/CC/C(C)=C\CC/C(C)=C\CC/C(C)=C\CC/C(C)=C\CC/C(C)=C\CC/C(C)=C\CC/C(C)=C\CC/C(C)=C\CC/C(C)=C\CC/C(C)=C\CC/C(C)=C\CC/C(C)=C\CC/C(C)=C\CC/C(C)=C\CC/C(C)=C\CC[C@H](C)CCO [Dolichol (n = 15)],Number of colonies formed in the dolichols-added group (CFU-e),[3],293.0 ± 6.2
same,activation at 20 µg/mL,"[3]; Mus musculus, 48 h, vs solvent-added control group, read-out: Percent increase (%) of colony formation (CFU-e)",19.1%
CC[C@H](C)C(=O)O[C@H]1CCC=C2C=C[C@H](C)[C@H](CC[C@@H]3C[C@@H](O)CC(=O)O3)[C@H]21 [compactin],Differentiation of sea urchin embryos,sea urchin embryos,did not occur
"NNc1ccccc1 [phenylhydrazine, reference compound]",Rate of dolichol biosynthesis in spleen,[4],greatly increased
Growth hormone: hormone named in Table 1,Effect on colony formation of erythropoietic progenitor cells,[1],.uparw.
Prostaglandin E,Effect on colony formation of erythropoietic progenitor cells,[1],.uparw.
Thyroid hormone,Effect on colony formation of erythropoietic progenitor cells,[1],.uparw.
dolichyl phosphate,Number of colonies formed in the dolichols-added group (BFU-e),"[5]; 9 days, erythropoietin 1 unit, mean ± S.E., 6 replicas, solvent control 73.7 ± 3.4",99.5 ± 2.4
same,Percent increase (%) of colony formation (BFU-e),[5]; vs solvent-added control group,+35.0%
same,Number of colonies formed in the dolichols-added group (CFU-e),[3],166.7 ± 2.4
same,Percent increase (%) of colony formation (CFU-e),[3]; vs solvent-added control group,+33.7%
same,Number of colonies formed in the dolichols-added group (CFU-c),"[6]; 7 days, mean ± S.E., 6 replicas, solvent control 256.8 ± 4.3",295.3 ± 4.9
same,Percent increase (%) of colony formation (CFU-c),[6]; vs solvent-added control group,+15.0%
same,"59Fe incorporation rate (%), dolichol administered group","erythropoiesis; 48 hours, control group 21.4",23.1%
same,Erythropoiesis enhancing ratio (%),erythropoiesis; percent increase of 59Fe incorporation rate vs control,+7.9%
same,Mortality,mice,no case of death in all of the mice tested
B1,Effect on colony formation of erythropoietic progenitor cells,[1],.uparw.
